Measured values reported in US7022667B2, “O-derivatized nocathiacin derivatives” (Bristol-Myers Squibb Company, priority 2002, dated 2006).
Values after ≈ are worked out from the molar mass of the structure shown.

Experiments:
Test in all cases: MIC, broth micro dilution assay (NCCLS)
Type in all cases: cell-based
[1] = tested on: Staphylococcus aureus A15090; settings: Mueller-Hinton medium, 35° C., 18 hours
Outline: (§1)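 Broth microdilution in Mueller-Hinton medium, with a final inoculum of about 5×10^5 cfu/well. Plates incubated at 35 °C for 18 hours in ambient air. MIC = lowest drug concentration preventing visible growth.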

[2] = tested on: Streptococcus pneumoniae A28272; settings: 50% Mueller-Hinton medium and 50% Todd Hewitt medium, 35° C., 18 hours
[3] = tested on: Enterococcus faecalis A20688; settings: Mueller-Hinton medium, 35° C., 18 hours
Outline: as §1

Structure (SMILES) | MIC (μg/mL) Staphylococcus aureus A15090 [1] | MIC (μg/mL) Streptococcus pneumoniae A28272 [2] | MIC (μg/mL) Enterococcus faecalis A20688 [3]
C=C(NC(=O)c1csc(-c2nc3c(cc2OCc2ccccc2)-c2nc(cs2)C(=O)NC(C(C)O)C(=O)NC(=C(C)OC)c2nc(cs2)C(=O)NC2c4nc(cs4)C(=O)NC(COC(=O)c4c5c6c(cccc6n4OCOCC[Si](C)(C)C)COC(=O)C(OC4CC(C)(O)C(N(C)C)C(C)O4)C2OC5)c2nc-3cs2)n1)C(N)=O (stereo not drawn) [Example 79] | 1.0 µg/mL (≈ 0.603 µM) | 0.015 µg/mL (≈ 0.00905 µM) | 1.0 µg/mL (≈ 0.603 µM)
C=C(NC(=O)c1csc(-c2nc3c(cc2OCOP(=O)([O-])OC(C)(C)C)-c2nc(cs2)C(=O)NC(C(C)O)C(=O)NC(=C(C)OC)c2nc(cs2)C(=O)NC2c4nc(cs4)C(=O)NC(COC(=O)c4c5c6c(cccc6n4OCOP(=O)([O-])OC(C)(C)C)COC(=O)C(OC4CC(C)(O)C(N(C)C)C(C)O4)C2OC5)c2nc-3cs2)n1)C(N)=O.[Na+].[Na+] (stereo not drawn) [Example 81] | 128 µg/mL | 8 µg/mL | >128 µg/mL
COC(C)=C1NC(=O)C(C(C)O)NC(=O)c2csc(n2)-c2cc(OCC(=O)OC(C)(C)C)c(-c3nc(C(N)=O)cs3)nc2-c2csc(n2)C2COC(=O)c3c4c5c(cccc5n3OCC(=O)OC(C)(C)C)COC(=O)C(OC3CC(C)(O)C(N(C)C)C(C)O3)C(OC4)C(NC(=O)c3csc1n3)c1nc(cs1)C(=O)N2 (stereo not drawn) [Example 82] | 0.03 µg/mL (≈ 0.0188 µM) | 0.015 µg/mL (≈ 0.00939 µM) | 0.06 µg/mL (≈ 0.0376 µM)
COC(C)=C1NC(=O)C(C(C)O)NC(=O)c2csc(n2)-c2cc(OC)c(-c3nc(C(N)=O)cs3)nc2-c2csc(n2)C2COC(=O)c3c4c5c(cccc5n3OC)COC(=O)C(OC3CC(C)(O)C(N(C)C)C(C)O3)C(OC4)C(NC(=O)c3csc1n3)c1nc(cs1)C(=O)N2 (stereo not drawn) [Example 83] | 0.03 µg/mL (≈ 0.0215 µM) | 0.03 µg/mL (≈ 0.0215 µM) | 0.06 µg/mL (≈ 0.043 µM)
C=C(NC(=O)c1csc(-c2nc3c(cc2OP(=O)(O)OCCCl)-c2nc(cs2)C(=O)NC(C(C)O)C(=O)NC(=C(C)OC)c2nc(cs2)C(=O)NC2c4nc(cs4)C(=O)NC(COC(=O)c4c5c6c(cccc6n4OP(=O)(O)OCCCl)COC(=O)C(OC4CC(C)(O)C(N(C)C)C(C)O4)C2OC5)c2nc-3cs2)n1)C(N)=O (stereo not drawn) [Example 86] | 4.0 µg/mL (≈ 2.32 µM) | 0.5 µg/mL (≈ 0.29 µM) | 4.0 µg/mL (≈ 2.32 µM)
C=C(NC(=O)c1csc(-c2nc3c(cc2OS(=O)(=O)c2cn(C)cn2)-c2nc(cs2)C(=O)NC(C(C)O)C(=O)NC(=C(C)OC)c2nc(cs2)C(=O)NC2c4nc(cs4)C(=O)NC(COC(=O)c4c5c6c(cccc6n4OCCCNS(=O)(=O)c4cn(C)cn4)COC(=O)C(OC4CC(C)(O)C(N(C)C)C(C)O4)C2OC5)c2nc-3cs2)n1)C(N)=O (stereo not drawn) [Example 87] | 1.0 µg/mL (≈ 0.561 µM) | 0.06 µg/mL (≈ 0.0337 µM) | 2.0 µg/mL (≈ 1.12 µM)
